Laboratory results taken from US11566007B2, “Ras inhibitors” (Revolution Medicines, Inc., priority 2019, dated 2023).

Key:
Format in all cases: biochemical
[1] = target: K-Ras G12C (Homo sapiens (Human), UniProt P01116+P62937, G12C); assay: Ras-Raf (BRAF RBD) disruption / FRET / MOA assay, KRAS G12C; conditions: KRAS G12C; Ras-Raf disruption/FRET/MOA assay; read-out: IC50* KRAS G12C FRET data
In short: (§1)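 TR-FRET read-out: a drop in ratio relative to DMSO wells marks disruption of the Ras:RAF complex, reported as IC50. Compounds (3-fold series, 10 points, top 30 μM final) incubated 3 h at 25° C before Eu-anti-His 10 nM and APC-anti-GST 50 nM, 1.5 h more.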

[2] = target: K-Ras G13C (Homo sapiens (Human), UniProt P01116+P62937, G13C); assay: Ras-Raf (BRAF RBD) disruption / FRET / MOA assay, KRAS G13C; conditions: KRAS G13C; Ras-Raf disruption/FRET/MOA assay; read-out: IC50* KRAS G13C FRET data
In short: as §1

[3] = target: KRAS G12S (Homo sapiens (Human), UniProt P01116+P62937, G12S); assay: Ras-Raf (BRAF RBD) disruption / FRET / MOA assay, KRAS G12S; conditions: Ras-Raf disruption/FRET/MOA assay; class symbols; read-out: KRAS G12S FRET data IC50
In short: as §1

[4] = target: KRAS G12D (Homo sapiens (Human), UniProt P01116+P62937, G12D); assay: Ras-Raf (BRAF RBD) disruption / FRET / MOA assay, KRAS G12D; conditions: Ras-Raf disruption/FRET/MOA assay; class symbols; read-out: KRAS G12D FRET data IC50
In short: as §1

[5] = target: KRAS WT (Homo sapiens (Human), UniProt P01116+P62937); assay: Ras-Raf (BRAF RBD) disruption / FRET / MOA assay, KRAS WT; conditions: read-out: IC50* KRAS WT FRET data
In short: as §1

[6] = target: KRAS G13D (Homo sapiens (Human), UniProt P01116+P62937, G13D); assay: Ras-Raf (BRAF RBD) disruption / FRET / MOA assay, KRAS G13D; conditions: read-out: IC50* KRAS G13D FRET data
In short: as §1

[7] = target: KRAS Q61H (Homo sapiens (Human), UniProt P01116+P62937, Q61H); assay: Ras-Raf (BRAF RBD) disruption / FRET / MOA assay, KRAS Q61H; conditions: Ras-Raf disruption/FRET/MOA assay; class symbols; read-out: KRAS Q61H FRET data IC50
In short: (§2)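 Compounds were tested as a 10-point 3-fold dilution series from 30 μM final for their ability to drive ternary complex formation between nucleotide-loaded Ras and cyclophilin A, displacing the BRAF RBD. After 3 h at 25° C., anti-His Eu-W1024 (10 nM) and anti-GST allophycocyanin (50 nM) were added for 1.5 h. A TR-FRET ratio decrease versus DMSO gave IC50.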

[8] = target: NRAS G12C (Homo sapiens (Human), UniProt P01111+P62937, G12C); assay: Ras-Raf (BRAF RBD) disruption / FRET / MOA assay, NRAS G12C; conditions: read-out: IC50* NRAS G12C FRET data
In short: as §1

[9] = target: NRAS Q61R (Homo sapiens (Human), UniProt P01111+P62937, Q61R); assay: Ras-Raf (BRAF RBD) disruption / FRET / MOA assay, NRAS Q61R; conditions: NRAS Q61R; Ras-Raf disruption/FRET/MOA assay; read-out: IC50* NRAS Q61R FRET data
In short: as §2

[10] = target: NRAS Q61K (Homo sapiens (Human), UniProt P01111+P62937, Q61K); assay: Ras-Raf (BRAF RBD) disruption / FRET / MOA assay, NRAS Q61K; conditions: NRAS Q61K; Ras-Raf disruption/FRET/MOA assay; read-out: IC50* NRAS Q61K FRET data
In short: as §2

K-Ras G13C, sequence (P01116-2 other isoform, or with tags, fused parts or gaps G13C): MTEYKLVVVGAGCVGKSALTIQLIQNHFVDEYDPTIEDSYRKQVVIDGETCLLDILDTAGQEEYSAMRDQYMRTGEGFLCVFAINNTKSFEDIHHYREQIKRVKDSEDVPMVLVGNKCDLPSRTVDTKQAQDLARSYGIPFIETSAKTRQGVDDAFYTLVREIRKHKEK
K-Ras G13C, sequence (P62937 whole entry): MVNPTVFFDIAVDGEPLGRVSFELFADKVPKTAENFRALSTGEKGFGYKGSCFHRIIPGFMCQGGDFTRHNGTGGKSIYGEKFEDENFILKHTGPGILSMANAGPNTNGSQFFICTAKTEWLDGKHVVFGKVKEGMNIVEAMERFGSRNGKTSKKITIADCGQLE
NRAS Q61K, sequence (P01111 whole entry Q61K): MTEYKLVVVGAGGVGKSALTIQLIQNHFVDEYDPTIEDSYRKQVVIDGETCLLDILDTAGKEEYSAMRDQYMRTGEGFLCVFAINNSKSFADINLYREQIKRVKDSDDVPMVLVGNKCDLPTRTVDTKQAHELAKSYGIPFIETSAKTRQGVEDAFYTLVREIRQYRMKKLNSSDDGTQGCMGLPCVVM
NRAS Q61K, sequence (P62937 whole entry): as the sequence (P62937 whole entry) above
KRAS Q61H, sequence (P01116-2 other isoform, or with tags, fused parts or gaps Q61H): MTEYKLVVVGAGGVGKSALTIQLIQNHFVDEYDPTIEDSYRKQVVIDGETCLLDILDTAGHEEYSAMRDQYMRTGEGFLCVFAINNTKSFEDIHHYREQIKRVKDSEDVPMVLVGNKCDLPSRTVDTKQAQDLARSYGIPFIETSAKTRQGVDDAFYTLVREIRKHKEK
KRAS Q61H, sequence (P62937 whole entry): as the sequence (P62937 whole entry) above
KRAS G13D, sequence (P01116-2 other isoform, or with tags, fused parts or gaps G13D): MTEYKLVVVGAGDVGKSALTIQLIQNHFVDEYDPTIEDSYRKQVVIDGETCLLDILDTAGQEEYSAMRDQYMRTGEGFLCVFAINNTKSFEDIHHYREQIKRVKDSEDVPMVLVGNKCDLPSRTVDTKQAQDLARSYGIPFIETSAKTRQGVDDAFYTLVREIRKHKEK
KRAS G13D, sequence (P62937 whole entry): as the sequence (P62937 whole entry) above
KRAS G12S, sequence (P01116-2 other isoform, or with tags, fused parts or gaps G12S): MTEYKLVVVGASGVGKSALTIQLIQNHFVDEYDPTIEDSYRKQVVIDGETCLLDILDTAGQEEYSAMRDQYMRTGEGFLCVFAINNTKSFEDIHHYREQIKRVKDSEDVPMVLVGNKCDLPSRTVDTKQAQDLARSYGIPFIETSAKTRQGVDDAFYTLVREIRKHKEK
KRAS G12S, sequence (P62937 whole entry): as the sequence (P62937 whole entry) above
KRAS G12D, sequence (P01116-2 other isoform, or with tags, fused parts or gaps G12D): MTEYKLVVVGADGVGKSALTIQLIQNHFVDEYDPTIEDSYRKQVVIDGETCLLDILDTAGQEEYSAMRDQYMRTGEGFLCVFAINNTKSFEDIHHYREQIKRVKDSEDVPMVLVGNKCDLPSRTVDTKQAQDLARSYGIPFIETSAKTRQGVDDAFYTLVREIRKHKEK
KRAS G12D, sequence (P62937 whole entry): as the sequence (P62937 whole entry) above
NRAS G12C, sequence (P01111 whole entry G12C): as the sequence (P01111 whole entry Q61K) above, with G12C, K61Q counted along it
NRAS G12C, sequence (P62937 whole entry): as the sequence (P62937 whole entry) above
KRAS WT, sequence (P01116-2 other isoform, or with tags, fused parts or gaps): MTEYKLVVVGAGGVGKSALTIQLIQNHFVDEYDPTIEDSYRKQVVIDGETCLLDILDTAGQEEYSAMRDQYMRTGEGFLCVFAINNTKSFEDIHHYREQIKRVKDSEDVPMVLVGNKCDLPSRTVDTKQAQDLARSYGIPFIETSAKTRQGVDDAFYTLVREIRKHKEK
KRAS WT, sequence (P62937 whole entry): as the sequence (P62937 whole entry) above
K-Ras G12C, sequence (P01116-2 other isoform, or with tags, fused parts or gaps G12C): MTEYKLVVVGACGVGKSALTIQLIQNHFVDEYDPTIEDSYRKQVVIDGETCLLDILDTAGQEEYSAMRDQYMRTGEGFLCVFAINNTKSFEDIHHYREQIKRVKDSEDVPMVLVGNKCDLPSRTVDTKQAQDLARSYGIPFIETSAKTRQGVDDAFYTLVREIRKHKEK
K-Ras G12C, sequence (P62937 whole entry): as the sequence (P62937 whole entry) above
NRAS Q61R, sequence (P01111 whole entry Q61R): as the sequence (P01111 whole entry Q61K) above, with K61R counted along it
NRAS Q61R, sequence (P62937 whole entry): as the sequence (P62937 whole entry) above

SMILES | IC50 [1] [µM] | IC50 [2] [µM] | IC50 [3] [µM] | IC50 [4] [µM] | IC50 [5] [µM] | IC50 [6] [µM] | IC50 [7] [µM] | IC50 [8] [µM] | IC50 [9] [µM] | IC50 [10] [µM]
CCn1c(-c2cccnc2[C@H](C)OC)c2c3cc(ccc31)-c1csc(n1)C[C@H](NC(=O)[C@H](C(C)C)N(C)C(=O)N1CCC13CN(C(=O)/C=C/CN(C)C)C3)C(=O)N1CCC[C@H](N1)C(=O)OCC(C)(C)C2 (atropisomer, axis not shown) [Example A598] | 0.01 to 0.1 | 0.1 to 1 | 0.01 to 0.1 | 0.1 to 1 | 0.01 to 0.1 | 0.1 to 1 | < 0.01 | 0.01 to 0.1 | 0.01 to 0.1 | 0.01 to 0.1
C=CC(=O)N1CCOC2(CCN(C(=O)N(C)[C@H](C(=O)N[C@H]3Cc4cccc(n4)-c4ccc5c(c4)c(c(-c4cccnc4[C@H](C)OC)n5CC(F)(F)F)CC(C)(C)COC(=O)[C@@H]4CCCN(N4)C3=O)C(C)C)CC2)C1 (atropisomer, axis not shown) [Example A607, 4-acryloyl-N-((2S)-1-(((6^3S,4S)-1^2-(2-((S)-1-methoxyethyl)pyridin-3-yl)-10,10-dimethyl-5,7-dioxo-1^1-(2,2,2-trifluoroethyl)-6^1,6^2,6^3,6^4,6^5,6^6-hexahydro-1^1H-8-oxa-1(5,3)-indola-6(1,3)-pyridazina-2(2,6)-pyridinacycloundecaphane-4-yl)amino)-3-methyl-1-oxobutan-2-yl)-N-methyl-1-oxa-4,9-diazaspiro[5.5]undecane-9-carboxamide] | 0.1 to 1 | 0.01 to 0.1 | 1 to 10 | 1 to 10 | 0.1 to 1 | 1 to 10 | 0.1 to 1 | 0.1 to 1 | 0.1 to 1 | 0.1 to 1
CCn1c(-c2cccnc2[C@H](C)OC)c2c3cc(ccc31)-c1csc(n1)C[C@H](NC(=O)[C@H](C(C)C)N(C)C(=O)N1CCC13CN(C(=O)/C=C/CN1CCOCC1)C3)C(=O)N1CCC[C@H](N1)C(=O)OCC(C)(C)C2 (atropisomer, axis not shown) [Example A611] | 0.1 to 1 | 0.1 to 1 | 0.1 to 1 | 1 to 10 | 0.1 to 1 | 0.1 to 1 | 0.01 to 0.1 | 0.1 to 1 | 0.01 to 0.1 | 0.01 to 0.1
CCn1c(-c2cccnc2[C@H](C)OC)c2c3cc(ccc31)-c1cccc(c1)C[C@H](NC(=O)[C@@H](COC1CN(C(=O)C#CC(C)(C)N(C)C3CC3)C1)C(C)C)C(=O)N1CCC[C@H](N1)C(=O)OCC(C)(C)C2 (atropisomer, axis not shown) [Example A613] | 0.1 to 1 | > 10 | > 10 | > 10 | > 10 | > 10 | > 10 | 1 to 10 | > 10 | > 10
CCn1c(-c2cccnc2[C@H](C)OC)c2c3cc(ccc31)N1CCC[C@@H](C[C@H](NC(=O)[C@H](C(C)C)N(C)C(=O)[C@H]3CCN(C(=O)C#CC(C)(C)N4CCC4)C3)C(=O)N3CCC[C@H](N3)C(=O)OCC(C)(C)C2)C1 (atropisomer, axis not shown) [Example A617] | 0.01 to 0.1 | > 10 | > 10 | > 10 | > 10 | > 10 | > 10 | 0.01 to 0.1 | > 10 | > 10
C=CC(=O)N1CCC[C@H]2CN(C(=O)N(C)[C@H](C(=O)N[C@H]3Cc4nc(cs4)-c4ccc5c(c4)c(c(-c4cccnc4[C@H](C)OC)n5CC)CC(C)(C)COC(=O)[C@@H]4CCCN(N4)C3=O)C(C)C)C[C@H]21 (atropisomer, axis not shown) [Example A618] | 0.1 to 1 | 0.1 to 1 | 0.1 to 1 | 1 to 10 | 0.1 to 1 | 1 to 10 | 0.1 to 1 | 0.1 to 1 | 0.1 to 1 | 0.1 to 1
CCn1c(-c2cccnc2[C@H](C)OC)c2c3cc(ccc31)-c1csc(n1)C[C@H](NC(=O)[C@H](C(C)C)N(C)C(=O)N1C[C@@H]3CN(C(=O)C#CC(C)(C)N(C)C)CC[C@@H]31)C(=O)N1CCC[C@H](N1)C(=O)OCC(C)(C)C2 (atropisomer, axis not shown) [Example A625] | 0.1 to 1 | 0.1 to 1 | 0.1 to 1 | 1 to 10 | 0.1 to 1 | 1 to 10 | 0.1 to 1 | 0.1 to 1 | 0.1 to 1 | 0.1 to 1
C=CC(=O)N(C)[C@H]1CN(C(=O)N(C)[C@H](C(=O)N[C@H]2Cc3nc(cs3)-c3ccc4c(c3)c(c(-c3cccnc3[C@H](C)OC)n4CC)CC(C)(C)COC(=O)[C@@H]3CCCN(N3)C2=O)C(C)C)C[C@@H]1F (atropisomer, axis not shown) [Example A632] | 0.01 to 0.1 | 0.01 to 0.1 | 0.1 to 1 | 1 to 10 | 0.1 to 1 | 1 to 10 | 0.1 to 1 | 0.01 to 0.1 | 0.1 to 1 | 0.1 to 1
C=CC(=O)N(C)[C@@H]1C[C@H](C)N(C(=O)N(C)[C@H](C(=O)N[C@H]2Cc3nc(cs3)-c3ccc4c(c3)c(c(-c3cccnc3[C@H](C)OC)n4CC)CC(C)(C)COC(=O)[C@@H]3CCCN(N3)C2=O)C(C)C)C1 (atropisomer, axis not shown) [Example A633] | 0.1 to 1 | 0.1 to 1 | 0.1 to 1 | 0.1 to 1 | 0.01 to 0.1 | 0.1 to 1 | 0.01 to 0.1 | 0.01 to 0.1 | 0.01 to 0.1 | 0.01 to 0.1
C=CC(=O)N(C)[C@@H]1C[C@@H](C)N(C(=O)N(C)[C@H](C(=O)N[C@H]2Cc3nc(cs3)-c3ccc4c(c3)c(c(-c3cccnc3[C@H](C)OC)n4CC)CC(C)(C)COC(=O)[C@@H]3CCCN(N3)C2=O)C(C)C)C1 (atropisomer, axis not shown) [Example A634] | 0.01 to 0.1 | 0.1 to 1 | 0.1 to 1 | 1 to 10 | 0.1 to 1 | 1 to 10 | 0.1 to 1 | 0.01 to 0.1 | 0.1 to 1 | 0.1 to 1
C=CC(=O)N1CCCC2(CCN(C(=O)N(C)[C@H](C(=O)N[C@H]3Cc4nc(cs4)-c4ccc5c(c4)c(c(-c4cccnc4[C@H](C)OC)n5CC)CC(C)(C)COC(=O)[C@@H]4CCCN(N4)C3=O)C(C)C)CC2)C1 (atropisomer, axis not shown) [Example A635] | 0.1 to 1 | 0.1 to 1 | 0.1 to 1 | 1 to 10 | 0.1 to 1 | 1 to 10 | 0.1 to 1 | 0.1 to 1 | 0.1 to 1 | 0.1 to 1
